Experimental data from PubChem BioAssay AID248 (DTP/NCI, 2004).
Inconclusive results and toxic doses are left out. No stated cut-off is given here; in the data, active means T/C of 150% or more; inactive means T/C below 125%.

Test system: L1210 leukemia ip in BDF1 mice, survival T/C
Assay: NCI In Vivo Anticancer Drug Screen. Data for tumor model L1210 Leukemia (intraperitoneal) in B6D2F1 (BDF1) mice
Details: endpoint: mean survival time, higher = longer survival
Procedure, shortened: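 Mice bearing the transplanted tumor received compound or vehicle. Survival of the treated group was divided by that of the vehicle-treated control group to give the ratio.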

[1] = dose: 100.0 mg/kg/injection, schedule: Q04DX003 (ip), vehicle: saline
[2] = dose: 200.0 mg/kg/injection, schedule: Q04DX003 (ip), vehicle: saline
[3] = dose: 100.0 mg/kg/injection, schedule: Q01DX009 (ip), vehicle: Klucel (hydroxypropylcellulose) (HPC)
[4] = dose: 200.0 mg/kg/injection, schedule: Q01DX009 (ip), vehicle: Klucel (hydroxypropylcellulose) (HPC)
[5] = dose: 400.0 mg/kg/injection, schedule: Q01DX009 (ip), vehicle: Klucel (hydroxypropylcellulose) (HPC)
[6] = dose: 100.0 mg/kg/injection, schedule: Q04DX003 (ip), vehicle: saline with Tween-80
[7] = dose: 200.0 mg/kg/injection, schedule: Q04DX003 (ip), vehicle: saline with Tween-80
[8] = dose: 400.0 mg/kg/injection, schedule: Q04DX003 (ip), vehicle: saline with Tween-80
[9] = dose: 100.0 mg/kg/injection, schedule: Q01DX001 (ip), vehicle: Klucel (hydroxypropylcellulose) (HPC)
[10] = dose: 100.0 mg/kg/injection, schedule: Q04DX003 (ip), vehicle: Klucel (hydroxypropylcellulose) (HPC)
[11] = dose: 200.0 mg/kg/injection, schedule: Q01DX001 (ip), vehicle: Klucel (hydroxypropylcellulose) (HPC)
[12] = dose: 200.0 mg/kg/injection, schedule: Q04DX003 (ip), vehicle: Klucel (hydroxypropylcellulose) (HPC)
[13] = dose: 400.0 mg/kg/injection, schedule: Q01DX001 (ip), vehicle: Klucel (hydroxypropylcellulose) (HPC)
[14] = dose: 400.0 mg/kg/injection, schedule: Q04DX003 (ip), vehicle: Klucel (hydroxypropylcellulose) (HPC)
[15] = dose: 100.0 mg/kg/injection, schedule: Q04DX002 (ip), vehicle: Klucel (hydroxypropylcellulose) (HPC)
[16] = dose: 200.0 mg/kg/injection, schedule: Q04DX002 (ip), vehicle: Klucel (hydroxypropylcellulose) (HPC)
[17] = dose: 100.0 mg/kg/injection, schedule: Q01DX001 (ip), vehicle: saline
[18] = dose: 200.0 mg/kg/injection, schedule: Q01DX001 (ip), vehicle: saline
[19] = dose: 400.0 mg/kg/injection, schedule: Q01DX001 (ip), vehicle: saline

Measured: T/C

Nc1ccc(Nc2nc3ccccc3s2)c(O)c1
inactive: dose: 75.0 mg/kg/injection, schedule: Q01DX001 (ip), vehicle: saline 104 % of control | dose: 150.0 mg/kg/injection, schedule: Q01DX001 (ip), vehicle: saline 101 % of control | dose: 300.0 mg/kg/injection, schedule: Q01DX001 (ip), vehicle: saline 104 % of control

O=C1c2ccccc2-c2nc3cncnc3nc21 (tested in a mixture with another compound)
inactive: dose: 50.0 mg/kg/injection, schedule: Q01DX009 (ip), vehicle: saline 98 % of control | dose: 100.0 mg/kg/injection, schedule: Q01DX009 (ip), vehicle: saline 101 % of control | [1] 95 % of control | dose: 200.0 mg/kg/injection, schedule: Q01DX009 (ip), vehicle: saline 101 % of control | [2] 101 % of control

C(=N\N(c1ccccc1)c1ccccc1)/c1ccc(/C=N/N(c2ccccc2)c2ccccc2)cc1
inactive: [3] 92 % of control | [4] 90 % of control | [5] 96 % of control

CCC1SC(CC)(CC(C)C)C(=O)NC1=O (centres undefined)
inactive: dose: 100.0 mg/kg/injection, schedule: Q01DX001 (ip), vehicle: carboxymethylcellulose (CMC) 102 % of control | dose: 200.0 mg/kg/injection, schedule: Q01DX001 (ip), vehicle: carboxymethylcellulose (CMC) 94 % of control | dose: 400.0 mg/kg/injection, schedule: Q01DX001 (ip), vehicle: carboxymethylcellulose (CMC) 94 % of control

CN(C)c1ccc(N=C(C#N)C(=O)c2ccccc2)cc1
inactive: [6] 95 % of control | [7] 95 % of control | [8] 102 % of control

CCOC(=O)C(=Cc1ccccc1OC)C(=O)OCC
inactive: [9] 100 % of control | [10] 94 % of control | [11] 111 % of control | [12] 100 % of control | [13] 111 % of control | [14] 92 % of control

CCC(Br)C(Br)CC(Br)C(Br)CC(Br)C(Br)CCCCCCCC(=O)O (centres undefined)
inactive: [3] 96 % of control | [10] 98 % of control | [4] 88 % of control | [12] 89 % of control | [5] 88 % of control | [14] 92 % of control

O=S1(=O)C(Cc2ccccc2)CCC1Cc1ccccc1 (centres undefined)
inactive: [10] 102 % of control | [12] 94 % of control | [14] 102 % of control

O=c1oc2ccc(Cl)cc2c(OCCO)c1Cl
inactive: [6] 94 % of control | [7] 96 % of control | [8] 86 % of control

O=C(Nc1cccc([N+](=O)[O-])c1)c1ccc(Cl)cc1
inactive: dose: 100.0 mg/kg/injection, schedule: Q04DX003 (ip), vehicle: gum acacia 101 % of control | dose: 200.0 mg/kg/injection, schedule: Q04DX003 (ip), vehicle: gum acacia 95 % of control | dose: 400.0 mg/kg/injection, schedule: Q04DX003 (ip), vehicle: gum acacia 101 % of control

CC(=O)NC1C(OCC(NC(=O)OCc2ccccc2)C(=O)NC(CC(=O)OCc2ccccc2)C(=O)OCc2ccccc2)OC(COC(C)=O)C(OC(C)=O)C1OC(C)=O (centres undefined)
inactive: dose: 50.0 mg/kg/injection, schedule: Q04DX002 (ip), vehicle: Klucel (hydroxypropylcellulose) (HPC) 97 % of control | [15] 97 % of control | [16] 87 % of control

Cc1ccccc1SCC#CCSc1ccccc1C
inactive: [9] 93 % of control | [11] 95 % of control | [13] 106 % of control

CCOc1ccc(NC(=S)NC(=O)c2ccco2)cc1
inactive: dose: 100.0 mg/kg/injection, schedule: Q01DX009 (ip), vehicle: saline with Tween-80 93 % of control | [10] 104 % of control | dose: 200.0 mg/kg/injection, schedule: Q01DX009 (ip), vehicle: saline with Tween-80 93 % of control | [12] 94 % of control | [14] 100 % of control

COc1ccc(OC)c(NC(=O)Nc2cc(Cl)ccc2C)c1
inactive: [3] 89 % of control | [4] 93 % of control

O=C(O)CCCCSCCSCCCCC(=O)O
inactive: [3] 101 % of control | [4] 94 % of control | [5] 86 % of control

CCOP(=S)(Nc1cccc(C(F)(F)F)c1)OCC
inactive: [17] 102 % of control | [18] 100 % of control | [19] 96 % of control

CC1CC2CCC1C2O (centres undefined)
inactive: dose: 37.5 mg/kg/injection, schedule: Q04DX003 (ip), vehicle: saline 100 % of control | dose: 75.0 mg/kg/injection, schedule: Q04DX003 (ip), vehicle: saline 97 % of control | dose: 150.0 mg/kg/injection, schedule: Q04DX003 (ip), vehicle: saline 90 % of control

CCOC(=O)c1cc(N(CCOS(C)(=O)=O)CCOS(C)(=O)=O)ccc1N
inactive: dose: 1.8 mg/kg/injection, schedule: Q01DX015 (ip), vehicle: saline 95 % of control | dose: 2.0 mg/kg/injection, schedule: Q01DX015 (ip), vehicle: saline 89 % of control | dose: 3.0 mg/kg/injection, schedule: Q01DX015 (ip), vehicle: saline 106 % of control | dose: 5.0 mg/kg/injection, schedule: Q01DX001 (ip), vehicle: saline 116 % of control | dose: 7.0 mg/kg/injection, schedule: Q01DX015 (ip), vehicle: saline 90 % of control

CCc1nc(N[N+](=O)[O-])nc(-c2ccccc2)c1-c1ccccc1O
inactive: [15] 107 % of control | [16] 94 % of control | dose: 400.0 mg/kg/injection, schedule: Q04DX002 (ip), vehicle: Klucel (hydroxypropylcellulose) (HPC) 107 % of control

Nc1nc2c(c(-c3ccccc3)n1)CN(CCC(=O)O)C2=O
inactive: [17] 103 % of control | [1] 98 % of control | [18] 107 % of control | [2] 100 % of control | [19] 100 % of control | dose: 400.0 mg/kg/injection, schedule: Q04DX003 (ip), vehicle: saline 98 % of control
